Source: US11780827B2, “Substituted 3-phenoxyazetidin-1-yl-pyrazines” (Boehringer Ingelheim International GmbH, priority 2020, dated 2023)

What was measured:
human GPR52 = molecular target: T1, human GPR52 (Homo sapiens, UniProt Q9Y2T5); experiment: HTRF assay for direct cAMP measurement; format: cell-based; details: CHO-K1 cells stably expressing recombinant human GPR52, mean EC50
T1 construct: expressed in transfected cells; host or cells: CHO-K1
Experimental: Homogeneous Time-Resolved Fluorescence (HTRF) Assay for Direct cAMP Measurement.
HTRF cAMP assays were performed using commercially available assay kits according to the manufacturer's instructions (cAMP Dynamic 2 Assay Kit; #62AM4PEJ, Cisbio Bioassays, Bedford, Mass.). An aliquot of CHO-K1 cells stably expressing recombinant human GPR52 is thawed and resuspended in cell buffer (1×PBS (w/o Ca^2+/Mg^2+)) at a density of 4×10^5 cells per mL Test compounds were solubilized in DMSO to 10 mM stock solutions and serially diluted in DMSO using 6-fold dilutions to generate 8-point dose response curves. These serially diluted samples were then diluted 1:50 in compound dilution buffer (1×PBS (w/o Ca^2+/Mg^2+) containing 0.5 mM IBMX, 0.1% BSA) to achieve a 4× stock. The diluted compounds were transferred (5 μL per well) in duplicate to the 384-well assay plate (Optiplate #6007290, PerkinElmer, Waltham, Mass.). Both a positive (reference compound) and negative (non-stimulated vehicle) control are included in each assay run in column 23. The cell suspension was subsequently dispensed into the 384-well assay plates at 15 μL per well (6000 cells) such that the compound was diluted to 1×. […] After a one-hour incubation at room temperature, 10 μL of cAMP D2 reagent followed by 10 μL of cryptate reagent (provided in the Cisbio kit) was added to each well. Plates were then incubated at room temperature for one hour prior to reading. Time-resolved fluorescence measurements were collected on an EnVision® HTRF plate reader (PerkinElmer, Waltham, Mass.). Counts from the plate reader were fit to the cAMP standard curve included on each plate to determine the amount of cAMP in each test well. The % control was calculated based on the positive control set at […]. Dose-response curves were generated from the cAMP data and analyzed using a nonlinear least squares curve-fitting program to obtain EC50 values.

aldehyde oxidase [1] = molecular target: T2, aldehyde oxidase (Homo sapiens, UniProt Q06278); experiment: In vitro metabolite profiling in primary human hepatocytes with or without hydralazine; format: in vitro ADME; details: for % Parent of drug-related material: 1 μM test compound; for Contribution of AO to oxidative metabolism: sum of AO-formed metabolites
T2 construct: endogenous in cells; host or cells: cryopreserved primary human hepatocytes
T2 sequence (Q06278 1-1338): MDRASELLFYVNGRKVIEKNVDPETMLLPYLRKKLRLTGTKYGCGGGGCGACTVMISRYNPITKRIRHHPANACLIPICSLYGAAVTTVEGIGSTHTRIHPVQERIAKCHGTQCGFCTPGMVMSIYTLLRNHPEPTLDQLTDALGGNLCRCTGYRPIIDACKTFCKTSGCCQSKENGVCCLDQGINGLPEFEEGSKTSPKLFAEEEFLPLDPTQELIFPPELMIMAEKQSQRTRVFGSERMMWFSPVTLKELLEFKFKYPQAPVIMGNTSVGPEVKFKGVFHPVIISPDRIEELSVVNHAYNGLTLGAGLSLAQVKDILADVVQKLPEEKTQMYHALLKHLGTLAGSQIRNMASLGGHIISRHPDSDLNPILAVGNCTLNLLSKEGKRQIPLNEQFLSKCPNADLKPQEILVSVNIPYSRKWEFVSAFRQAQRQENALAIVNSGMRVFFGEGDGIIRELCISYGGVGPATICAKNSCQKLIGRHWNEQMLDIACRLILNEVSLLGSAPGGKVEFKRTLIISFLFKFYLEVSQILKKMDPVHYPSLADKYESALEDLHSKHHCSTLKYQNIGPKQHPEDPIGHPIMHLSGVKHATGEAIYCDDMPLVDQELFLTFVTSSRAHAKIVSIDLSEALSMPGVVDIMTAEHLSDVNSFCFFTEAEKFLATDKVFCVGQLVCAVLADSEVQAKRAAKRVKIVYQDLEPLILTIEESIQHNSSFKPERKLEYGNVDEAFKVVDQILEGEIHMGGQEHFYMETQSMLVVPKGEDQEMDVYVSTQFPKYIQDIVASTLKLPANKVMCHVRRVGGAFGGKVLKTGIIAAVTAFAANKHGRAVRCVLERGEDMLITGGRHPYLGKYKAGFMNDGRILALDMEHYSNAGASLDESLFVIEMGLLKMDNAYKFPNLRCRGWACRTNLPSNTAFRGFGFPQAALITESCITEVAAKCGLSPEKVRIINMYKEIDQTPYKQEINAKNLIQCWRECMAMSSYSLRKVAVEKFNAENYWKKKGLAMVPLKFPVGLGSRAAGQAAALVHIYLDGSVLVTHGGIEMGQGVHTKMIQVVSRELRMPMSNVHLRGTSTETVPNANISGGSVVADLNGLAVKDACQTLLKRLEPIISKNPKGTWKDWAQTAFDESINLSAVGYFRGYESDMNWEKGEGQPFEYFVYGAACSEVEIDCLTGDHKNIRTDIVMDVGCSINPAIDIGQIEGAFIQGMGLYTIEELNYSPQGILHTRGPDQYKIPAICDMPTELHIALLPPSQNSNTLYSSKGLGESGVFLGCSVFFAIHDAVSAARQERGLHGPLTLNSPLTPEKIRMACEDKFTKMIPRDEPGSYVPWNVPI
Experimental: (§1) In vitro metabolite profiling to evaluate the involvement of aldehyde oxidase in addition to CYP-mediated metabolic pathways is based on the semiquantitative analysis of the formation of oxygenated metabolites in primary human hepatocytes and the reduction in their formation in presence of the specific aldehyde oxidase inhibitor hydralazine. If respective hydralazine-inhibitable metabolites are also formed in human liver cytosol incubations in the absence of any cofactors, involvement of aldehyde oxidase in the metabolism of the respective compound is considered likely.
The involvement of aldehyde oxidase in metabolic transformation of the test compound is investigated using primary human hepatocytes in suspension in presence or absence of the specific aldehyde oxidase inhibitor hydralazine. After recovery from cryopreservation, human hepatocytes are incubated in Dulbecco's modified eagle medium supplemented with 3.5 μg glucagon/500 ml, 2.5 mg insulin/500 ml and 3.75 mg/500 ml hydrocortisone) containing 5% human serum.
Following a 30 min preincubation in a cell culture incubator (37° C., 10% CO2) with or without 50 μM hydralazine, test compound solution is spiked into the hepatocyte suspension to obtain a final cell density of 1.0*10^6 to 4.0*10^6 cells/mi (depending on the metabolic turnover rate of the compound observed with primary human hepatocytes), a final test compound concentration of 1 μM, and a final DMSO concentration of 0.05%.
The cells are incubated for six hours (incubator, horizontal shaker) and samples are removed from the incubation after 0, 0.5, 1, 2, 4 or 6 hours, depending on the metabolic turnover rate. Samples are quenched with acetonitrile and pelleted by centrifugation. The supernatant is transferred to a 96-deepwell plate, evaporated under nitrogen and resuspended prior to bioanalysis by liquid chromatography-high resolution mass spectrometry for identification of putative metabolites.

aldehyde oxidase [2] = molecular target: T2, aldehyde oxidase; experiment: Metabolite formation in pooled human liver cytosol incubations without cofactors; format: in vitro ADME; parameters: key: yes: Metabolite is formed in presence of human liver cytosol in the absence of cofactors as indication of aldehyde oxidase mediated metabolism; Metabolite is not detected in cytosol incubations; details: human liver cytosol 5 mg/ml, 10 μM test compound, 60 min, metabolite of the same line
Experimental: as §1
The involvement of aldehyde oxidase in the metabolic transformation of the test compound is confirmed at 37° C. with pooled human liver cytosol fractions. The incubations, conducted at a final incubation volume of 60 μl per time point, are composed of phosphate buffer (100 mM, pH 7.4), magnesium chloride (5 mM), and human liver cytosol (5 mg/ml). Following a short preincubation period at 37° C., the reactions are initiated by addition of the test compound, resulting in a final concentration of 10 μM. After 0 and 60 minutes, the incubations are terminated by transferring an aliquot into organic solvent, followed by centrifugation (10000 g, 5 min). The resulting supernatant is used for bioanalysis by liquid chromatography-high resolution mass spectrometry for identification of putative metabolites.

T1 sequence (Q9Y2T5 whole entry): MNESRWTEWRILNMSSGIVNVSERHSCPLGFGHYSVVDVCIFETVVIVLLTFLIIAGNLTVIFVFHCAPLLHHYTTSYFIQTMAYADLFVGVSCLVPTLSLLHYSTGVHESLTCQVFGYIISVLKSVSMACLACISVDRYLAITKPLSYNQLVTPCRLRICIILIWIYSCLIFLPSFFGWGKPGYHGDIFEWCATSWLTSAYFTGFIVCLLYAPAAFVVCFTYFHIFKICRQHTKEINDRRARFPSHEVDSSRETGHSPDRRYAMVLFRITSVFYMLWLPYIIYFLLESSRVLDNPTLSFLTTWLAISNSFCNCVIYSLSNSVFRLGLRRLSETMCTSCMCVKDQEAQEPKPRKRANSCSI

| Compound | EC50 (human GPR52) [nM] | % Parent of drug-related material (aldehyde oxidase [1]) [%] | Contribution of AO to oxidative metabolism (aldehyde oxidase [1]) [%] | Formation in human liver cytosol incubations [yes/no] (aldehyde oxidase [2]) |
| --- | --- | --- | --- | --- |
| Cc1cc(NC(=O)c2nccnc2N2CC(Oc3cc(F)cc(C(F)F)c3)C2)cnn1 [Example 11] | 6 | 86 | 28 | yes |
| Cc1cc(NC(=O)c2nccnc2N2CC(Oc3cc(F)cc(F)c3)C2)cnn1 [Example 13] | 9 | 15 | 15 | yes |
| Cc1cc(NC(=O)c2nccnc2N2CC(Oc3cc(F)c(F)c(F)c3)C2)cnn1 [Example 15] | 5 | 71 | 71 | yes |
| CCc1cc(NC(=O)c2nccnc2N2CC(Oc3ccc(F)c(F)c3)C2)cnn1 [Example 21] | 2 | 80 | 67 | yes |
| Cc1cc(NC(=O)c2nccnc2N2CC(Oc3ccc(F)c(F)c3)C2)ncn1 [Example 29] | 5 | 96 | 36 | yes |

The remaining compounds from weak to strong by EC50 (human GPR52), led by results:

| EC50 (human GPR52) [nM] | % Parent of drug-related material (aldehyde oxidase [1]) [%] | Contribution of AO to oxidative metabolism (aldehyde oxidase [1]) [%] | Formation in human liver cytosol incubations [yes/no] (aldehyde oxidase [2]) | Compound |
| --- | --- | --- | --- | --- |
| 5 | 94 | 53 | yes | O=C(Nc1ccnnc1)c1nccnc1N1CC(Oc2cc(F)c(F)c(F)c2)C1 [Example 4] |
| 4 | 91 | 22 | yes | Cc1cc(NC(=O)c2nccnc2N2CC(Oc3cc(F)cc(Cl)c3)C2)cnn1 [Example 10] |
| 4 | 94 | 22 | yes | Cc1cc(NC(=O)c2nccnc2N2CC(Oc3cc(F)c(F)c(Cl)c3)C2)cnn1 [Example 14] |
| 3 | 93 | 56 | yes | Cc1cc(NC(=O)c2nccnc2N2CC(Oc3ccc(F)c(F)c3)C2)cnn1 [Example 12] |
